Test results: paper PMC4861277, “The KISS1 Receptor as an In Vivo Microenvironment Imaging Biomarker of Multiple Myeloma Bone Disease” (PLoS ONE, 2016)
Ends that are not written are not given here.

Columns and labels:
[1] = mouse, in vivo, iv
Procedure: BLI was performed with an IVIS Spectrum (Caliper-Xenogen, Alameda, CA, USA) as previously described [32]. Briefly, mice were anesthetized i.p. with a mixture of ketamine (100 mg/kg) and xylazine (10 mg/kg) in PBS. Luciferin (150 mg/kg) was co-injected and BLI measurements were started 10 min later. For MCF-7 mice, animals were imaged every minute following injection of 100 μl of Alexa 633-kisspeptin (40 μM) using the NightOwl. For MM-containing mice, a fluorescence pre-scan (excitation filter: 605 nm, emission filter: 660 nm; illumination time: 1 s) was performed using the IVIS Spectrum. Next, mice were injected with 100 μl of Alexa 633-kisspeptin (40 μM) in the lateral tail vein and immediately imaged every two minutes for up to 20 min using the fluorescence settings as described above. In addition, fluorescent images were acquired after 30, 45, and 60 min. At the end of the experiment mice were then euthanized, organs were prepared, and fluorescence ex vivo imaging of the organs was performed. Imaging data was analyzed with Living Image 4.0 (Caliper-Xenogen, Alameda, CA, USA) and Prism 5 software (GraphPad, La Jolla, CA, USA).
All statistical analyses were conducted using Prism 5 software. Comparison between groups was made using either a paired or unpaired two-sample t-tests. Comparison of organ fluorescence was conducted using a 1-way ANOVA and Turkey’s multiple comparison test. Alexa 633-kisspeptin binding kinetics were quantified using association then dissociation curves with time0 = 25 min and NS = 1. P values of <0.05 were considered to be statistically significant.

[2] = tested on: MOPC315.BM2-LucGFP MM bone lesions; experiment: In vivo time-lapse fluorescence imaging of MM bone lesions (MOPC model); conditions: BALB/c mice with MOPC lesions in one hind leg, 100 μl of 40 μM probe i.v., imaged for 1 h, relative to pre-scan, n = 6, p<0.01 (Fig 5E)
Procedure: (§1) In vivo binding of Alexa 633-kisspeptin was tested in immune competent BALB/c and CD-1 nude mice, inoculated with MOPC cells and MCF-7 cells, respectively. All experiments were performed according to the German regulations for animal experimentation. The study was approved by the Regierung von Unterfranken as the responsible authority (Permit Number 55.2–2531.01-76/10 and -103/11) and by the institutional authorities of the Ethics Committee for Animal Experiments at the Christian Albrechts University of Kiel (V242-7224.121–17). 1x10^6 MCF-7 cells transfected with the near-infrared fluorescent protein [31] were suspended in 5 μl PBS and injected directly into the right tibia, with equal amounts of PBS injected into contralateral control limbs, of 3 female CD-1 nude mice (Charles River). Tumor progression was monitored using the NightOwl planar imaging system (Berthold Technologies, Bad Wildbad, Germany). 1x10^5 MOPC cells, suspended in 100 μl PBS, were injected i.v. via the lateral tail vein into immune-competent female BALB/c mice (Charles River). 19 days after the injection of the MM cells, mice were imaged by in vivo bioluminescence (BLI) to identify 6 mice which contain lesions in only one of the hind legs. All animals were kept in temperature and humidity-controlled, pathogen-free environment, with a 12 h light/dark cycle, and access to food and water ad libitum. […]

[3] = tested on: primary MSCs (KISS1R); experiment: Fluorescence microscopy of probe binding to primary MSCs (alone, conditioned media, direct co-culture with MM cells); format: cell-based, human; conditions: for binding to primary MSCs under normal culture conditions: MSCs alone, room temperature, fluorescence microscopy (Cy5 filter), Fig 4A; for binding to primary MSCs under normal culture conditions / binding to MSCs and MM cells after direct co-culture: 30 min incubation, 40 μmol/l; for binding to MSCs and MM cells after direct co-culture: MSCs directly co-cultured 24 h with INA-6 or MOPC cells
Procedure: (§2) MSCs were seeded in a Nunc^TM Lab-Tek^TM II 4-well chamber slide (6.7x10^3 cells/well) (Thermo Fischer Scientific GmbH, Erlangen, Germany) and allowed to attach overnight. Afterwards, the medium was replaced by 500 μl mixed media, 1:1 (v/v), followed by 24 h incubation. The day after, 500 μl mixed media, 1:1 (v/v) containing 1x10^4 INA-6 cells or 1.5x10^5 MOPC cells, 500 μl MM cell-derived supernatant (conditioned media) or 500 μl mixed media, 1:1 (v/v) (control) was added per well. For preparation of the conditioned media, INA-6 cells (2x10^5 cells/ml) or MOPC cells (3.75x10^4 cells/ml) were cultured for one day in mixed media, 1:1 (v/v), followed by centrifugation (270 g, 5 min) and filtration of the supernatant (filter pore size: 0.45 μm). After 24 h, cells were incubated for 30 min with either free dye or the Alexa 633-kisspeptin (40 μmol/l) at room temperature. After rinsing three times with PBS, cells were fixed in 4% paraformaldehyde and mounted with Vectashield mounting media for fluorescence containing 4',6-diamidino-2-phenylindole (Vector Laboratories, Inc., purchased from Linaris, Dossenheim, Germany). Images were acquired using a BZ-9000 fluorescence microscope (Cy5 filter) and the softwares BZ-II Viewer and BZ-II Analyzer 2.1 (all from Keyence, Neu-Isenburg, Germany).

[4] = tested on: KISS1R-expressing cell line MCF-7; experiment: Fluorescence microscopy of probe binding to cultured MCF-7 cells; format: cell-based, human; conditions: S2A Fig
Procedure: as §2, with “For preparation of the conditioned media, INA-6 cells (2x10^5 cells/ml) or MOPC cells (3.75x10^4 cells/ml) were cultured for one day in mixed media, 1:1 (v/v), followed by centrifugation (270 g, 5 min) and filtration of the supernatant (filter pore size: 0.45 μm). After 24 h, cells were incubated for 30 min with either free dye or the Alexa 633-kisspeptin (40 μmol/l) at room temperature.” left out
(§3) Supplementary file pone.0155087.s002.tif: S2 Fig Alexa 633-kisspeptin binds to the KISS1R-expressing cell line MCF-7 in vitro and in vivo. Cultured MCF-7 cells were incubated with either free dye or dye conjugated to the modified kisspeptin and imaged with fluorescence microscopy (A). […] Tibia fluorescence was quantified over time (D) and plateau fluorescent values determined (E). […]

[5] = tested on: MCF-7 tumor-burdened tibiae; experiment: In vivo fluorescence imaging of mice intratibially injected with MCF-7 cells; conditions: CD-1 nude mice, intratibial MCF-7, 100 μl of 40 μM probe, NightOwl imaging for 20 min, plateau values, n = 3, p<0.05 (S2E Fig)
Procedure: as §1, with “Germany).” for “Germany). 1x10^5 MOPC cells, suspended in 100 μl PBS, were injected i.v. via the lateral tail vein into immune-competent female BALB/c mice (Charles River). 19 days after the injection of the MM cells, mice were imaged by in vivo bioluminescence (BLI) to identify 6 mice which contain lesions in only one of the hind legs. All animals were kept in temperature and humidity-controlled, pathogen-free environment, with a 12 h light/dark cycle, and access to food and water ad libitum.”
as §3

[6] = tested on: matrix metalloproteinase 2; conditions: cited from earlier work
Description: The data presented herein support KISS1R as a novel and promising new biomarker for myeloma bone disease, but still several questions remain. Firstly, while we have described the up-regulation of the KISS1R cells directly interacting with MM cells, little is known so far about the role of kisspeptin and the KISS1R in MM disease progression. It will be of great importance to understand the role of kisspeptin and the KISS1R in both bone marrow cells and MM, and to be aware of what potential side effects, either positive or negative, may be associated with targeting or activation of this system. ...

[7] = compared with 10, 13 and 14 amino acid isoforms; cited from earlier work

Alexa 633-kisspeptin: 54 amino acid kisspeptin with an N-terminal cysteine residue, labeled with Alexa Fluor 633 C5 Maleimide (C(Alexa Fluor 633 C5 maleimide)GTSLSPPPESSGSPQQPGLSAPHSRQIPAPQGAVLVQREKDLPNYNWNSFGLRF; ends and bridges not checked)
organ uptake: kidney fluorescence [1]: significantly high levels of fluorescence | organ uptake: liver fluorescence [1]: significantly high levels of fluorescence | organ uptake: ovaries [1]: a notable amount of probe was also detected | peak fluorescence in tumor-burdened limbs compared to contralateral sites [2]: Significantly greater peak fluorescence levels | binding to MSCs cultured in MM cell conditioned media ([3]; MSCs 24 h in INA-6 or MOPC conditioned media, 30 min with 40 μmol/l probe, Fig 4B): low level probe binding | binding to primary MSCs under normal culture conditions [3]: low level, heterogeneous binding | binding to MSCs and MM cells after direct co-culture ([3]; Fig 4B): at high levels | binding to MCF-7 cells in vitro [4]: bound | fluorescence signal in tumor-burdened tibiae relative to contralateral controls [5]: significantly elevated signals

kisspeptin
cleavage by matrix metalloproteinase 2 [6]: cleaved and inactivated | stability of the 54 amino acid form relative to the shorter isoforms [7]: higher stability

Alexa Fluor 633 C5 Maleimide [free dye, reference compound]
binding to primary MSCs under normal culture conditions [3]: no notable fluorescence | binding to MSCs and MM cells after direct co-culture ([3]; Fig 4B): failed to show any specific binding
